Measurements taken from article PMC7790557, “Pleiotropic Properties of Amphiphilic Dihydropyridines, Dihydropyridones, and Aminovinylcarbonyl Compounds” (Oxidative Medicine and Cellular Longevity, 2020).
Like-named read-outs stand apart in the source and are kept apart here. Values belong to the compound of their own block, whether it stands above or below them.

Tests used:
[1] = tested on: MH-22A (mouse hepatoma); assay: Cytotoxicity, crystal violet (CV) assay, MH-22A; format: cell-based; conditions: Mus musculus, read-out: MH-22A IC50 (CV)
Description: (§1) After incubation, the staining solution was removed. The cells were washed 4 times with water.

[2] = Cytotoxicity, crystal violet (CV) assay, MH-22A; format: cell-based, mouse; conditions: mouse, summarises CV and MTT values, read-out: cytotoxicity towards MH-22A cells; for IC50 at 72 h: MH-22A cells (hepatoma)
Description: as §1

[3] = tested on: HT-1080 (human lung fibrosarcoma); assay: Cytotoxicity, MTT assay, HT-1080; format: cell-based; conditions: Homo sapiens, read-out: HT-1080 IC50 (MTT)
Text: (§2) Reduction takes place only when mitochondrial reductase enzymes are active, and therefore, conversion is directly related to the number of viable cells which can be quantified by the absorbance of the solution (between λ = 500 and 600 nm) using a spectrophotometer.

[4] = tested on: HT-1080 (human lung fibrosarcoma); assay: Cytotoxicity, crystal violet (CV) assay, HT-1080; conditions: Homo sapiens, HT-1080, 72 h, read-out: HT-1080 IC50 (CV)
Description: (§3) IC50 is the compound concentration (μg/ml) at which 50% of the cells die. […] CV staining can be used to quantify the total DNA of the remaining population and thus is used to determine the number of live cells based on the concentration of the dye which remains after staining.
(§4) Tumor cell lines HT-1080 (human connective tissue fibrosarcoma, ATCC® CCL-121™) and MH-22A (mouse hepatocarcinoma, ECACC, cat. Nr. 96121721) were used.
(§5) HT-1080 and MH-22A cells were seeded in 96-well plates in Dulbecco's modified Eagle's (DMEM) medium containing 10% fetal bovine serum and 4 mM L-glutamine, without antibiotics, and cultivated for 72 h by exposure to different concentrations of compounds. Cell viability was measured using 3-(4,5-dimethylthiazol-2-yl)-2,5-diphenyltetrazolinium bromide (MTT). In brief, after incubating with compounds, the culture medium was removed and fresh medium with 0.2 mg/ml MTT was added in each well of the plate. After incubation (3 h, 37°C, 5% CO2), the medium with MTT was removed, and 200 μl DMSO was added at once to each sample. The samples were tested at 540 nm on a Tecan Infinite M1000 multiplate reader. The IC50 was calculated using the program GraphPad Prism® 3.0.
(§6) For the CV assay, cells were stained with 0.05% crystal violet (Sigma-Aldrich) in 30% methanol for 20 minutes at room temperature. After incubation, the staining solution was removed. The cells were washed 4 times with water. For dye solubilization, 200 μl of a solubilizing solution (0.1 M citrate buffer, pH 4.2 in 50% ethanol; 1 : 1 v/v) was added. The absorbance of the solution was measured using a Tecan Infinite M1000 multiplate spectrophotometer at a wavelength of 570 nm [21].

[5] = Cytotoxicity, crystal violet (CV) assay, HT-1080; conditions: human
Description: as §3, §4, §5, §6

[6] = tested on: MH-22A (mouse hepatoma); assay: Cytotoxicity, MTT assay, MH-22A; format: cell-based; conditions: Mus musculus, read-out: MH-22A IC50 (MTT)
Text: as §2

[7] = tested on: NIH3T3 (mouse embryonic fibroblast); assay: Basal cytotoxicity test, Neutral Red Uptake (NRU) assay; conditions: for IC50: Mus musculus, NIH3T3, 24 h
Description: The NRU cytotoxicity assay procedure is based on the ability of viable cells to incorporate and bind neutral red, a supravital dye.
Balb/c NIH 3T3 (mouse Swiss albino embryo fibroblast, ATCC® CRL-1658™) cells (9000 cells/well) were placed into 96-well plates for 24 h in Dulbecco's modified Eagle's medium (DMEM) containing 5% fetal bovine serum. Then, the cells were exposed to the test compound over a range of seven concentrations (1000, 316, 100, 31, 10, 3, and 1 μg/ml) for 24 h. Untreated cells were used as a control. After 24 h, the medium was removed from all plates. Then, 150 μl of neutral red solution was added (0.05 mg/ml NR in DMEM 24 h preincubated at 37°C and then filtered before use through a 0.22 μm syringe filter). Plates were incubated for 3 h, and then, the cells were washed three times with PBS. The dye within viable cells was released by extraction with a mixture of acetic acid, ethanol, and water (1 : 50 : 49). The absorbance of neutral red was measured using a spectrophotometer multiplate reader (Tecan Infinite M1000) at 540 nm. The optical density (OD) was calculated using the following formula: OD (treated cells) × 100/OD (control cells). The IC50 values were calculated using the GraphPad Prism® 3.0 program.

[8] = Electrochemical oxidation potentials, cyclic voltammetry; format: physicochemical; conditions: glassy carbon electrode, dry acetonitrile; for Oxidation potential E^ox: Table 4, vs Ag/Ag+, 0.1 M TBABF4, tested as perchlorates; for electrooxidation potential: cyclic voltammetry
Description: A stationary glassy carbon disk electrode (d = 0.5 mm) served as the working electrode, while the counterelectrode was a Pt wire. The oxidation potentials were measured relative to a Ag/Ag^+ reference electrode. Acetonitrile was dried over P2O5 and distilled; the distillate was stored over CaH2 and redistilled just before use. Recrystallized tetrabutylammonium tetrafluoroborate (TBABF4) was used as a supporting electrolyte at 0.1 M concentration.
The electrochemical oxidation of the selected compounds studied in this work was performed by cyclic voltammetry on a stationary glassy carbon electrode in dry acetonitrile; the data is presented in Table 4. The perchlorates of the tested amphiphiles were obtained from the corresponding bromides by treating their abs. MeOH solutions with excess of conc. HClO4 according to the procedure elaborated by Turovska et al..

[9] = cited from earlier work
[10] = tested on: cancer cell lines HT-1080 and MH-22A; assay: in vitro; format: cell-based
Description: as §1

[11] = in vitro; conditions: mouse, LD50 (calculated, NIH3T3); calculated from NIH3T3 IC50
Text: Data from the in vitro tests were used for estimating the starting dose for acute oral systemic toxicity tests in the rodent. The in vivo starting dose is an estimated LD50 value calculated by inserting the in vitroIC50 value into a regression formula: log LD50 (mM/kg) = 0.439 log IC50 (mM) + 0.621 [23–25]. […] Using an alternative in vitro method allows the comparison between possibly toxic new compounds and selecting compounds for further study vastly reducing the number of animal experiments.
Additionally, the compound influence on “normal” mouse fibroblasts (NIH3T3) was estimated for the studies of structure-activity relationships and exploration of the effect of substituents.

[12] = in vitro; format: cell-based; conditions: human and mouse, summarises both cell lines, CV and MTT, read-out: cytotoxicity on cancer cell lines HT-1080 and MH-22A
Description: as §1

[13] = HT-1080, Table 1, 72 h exposure
[14] = read-out: NIH3T3 IC50 (NR), Table 1, 24 h exposure
[15] = HT-1080, Table 2, 72 h exposure

Oxidation potential E^ox [8]: 1.63 V | electrooxidation potential [8]: 1.63 V
Compound: CCCCCCCCCCCCOC(=O)C1=C(C[n+]2ccc(C(F)(F)F)cc2)NC(C[n+]2ccc(C(F)(F)F)cc2)=C(C(=O)OCCCCCCCCCCCC)C1c1ccccc1.[Br-].[Br-] [compound 21, 1,1'-((3,5-Bis((dodecyloxy)carbonyl)-4-phenyl-1,4-dihydropyridine-2,6-diyl)bis(methylene))bis(4-(trifluoromethyl)pyridin-1-ium) dibromide]
IC50 ([1]; Table 1, 72 h exposure): 49 ± 8 µg/mL | IC50 at 72 h [2]: 19 to 49 µg/mL | IC50 [3, 13]: 4 ± 0.5 µg/mL | IC50 [4]: 2 ± 0.3 µg/mL | IC50 at 72 h ([5]; HT-1080 cells (fibrosarcoma)): 2 to 4 µg/mL | IC50 ([6]; Table 1, 72 h exposure): 19 ± 6 µg/mL | IC50 ([7]; read-out: NIH3T3 IC50 (NR)): 12 ± 4 µg/mL

Compound: O=C(OCCCCCCCCCCCC(F)(F)F)C1=C(C[n+]2ccccc2)NC(C[n+]2ccccc2)=C(C(=O)OCCCCCCCCCCCC(F)(F)F)C1c1ccccc1.[O-][Cl+3]([O-])([O-])[O-].[O-][Cl+3]([O-])([O-])[O-] [compound 22, 1,1'-((4-phenyl-3,5-bis(((12,12,12-trifluorododecyl)oxy)carbonyl)-1,4-dihydropyridine-2,6-diyl)bis(methylene))bis(pyridin-1-ium) diperchlorate]
IC50 ([1]; Table 1, 72 h exposure): 10 ± 1 µg/mL | IC50 at 72 h [2]: 10 to 19 µg/mL | IC50 [3, 13]: 10 ± 2 µg/mL | IC50 [4]: 18 ± 5 µg/mL | IC50 at 72 h ([5]; HT-1080 cells (fibrosarcoma)): 10 to 18 µg/mL | IC50 ([6]; Table 1, 72 h exposure): 19 ± 5 µg/mL | IC50 [7, 14]: 16 ± 3 µg/mL | Oxidation potential E^ox [8]: 1.57 V

Compound: CCOC(=O)C1=C(C)NC(C)=C(C(=O)OCC)C1 [Diludin, reference compound]
antiradical activity (ARA) [9]: 40%

Compound: COC(=O)C1=C(C[n+]2ccccc2)N(Cc2ccccc2)C(=O)CC1.[O-][Cl+3]([O-])([O-])[O-] [compound 29, 1-{[1-Benzyl-3-(methoxycarbonyl)-6-oxo-1,4,5,6-tetrahydropyridin-2-yl]methyl}pyridinium perchlorate]
IC50 ([1]; Table 2, 72 h exposure): > 100 µg/mL | cytotoxicity to cancer cell lines HT-1080 and MH-22A (in words) [10]: inert | IC50 [3, 15]: > 100 µg/mL | IC50 [4]: > 100 µg/mL | IC50 ([6]; Table 2, 72 h exposure): > 100 µg/mL | IC50 ([7]; read-out: NIH3T3 IC50 (NR), Table 2, 24 h exposure): 972 ± 27 µg/mL | Oxidation potential E^ox [8]: 2.35 V | electrooxidation potential [8]: 2.35 V

Compound: CCCCCCCCCCCCOC(=O)C1=C(C[n+]2ccc(N(C)C)cc2)NC(C[n+]2ccc(N(C)C)cc2)=C(C(=O)OCCCCCCCCCCCC)C1c1ccccc1.[Br-].[Br-] [compound 13, 1,1'-((3,5-Bis((dodecyloxy)carbonyl)-4-phenyl-1,4-dihydropyridine-2,6-diyl)bis(methylene))bis(4-(dimethylamino)pyridin-1-ium) dibromide]
IC50 ([1]; Table 1, 72 h exposure): 6 ± 2 µg/mL | IC50 [3, 13]: 3 ± 0.6 µg/mL | IC50 [4]: 10 ± 1 µg/mL | IC50 ([6]; Table 1, 72 h exposure): 10 ± 3 µg/mL | IC50 ([7]; read-out: NIH3T3 IC50 (NR)): 119 ± 13 µg/mL | antiradical activity (ARA), DPPH free radical scavenging ([9]; untreated DPPH level designated 100%): 27%

Compound: CCCCCCCCCCCCOC(=O)c1c(C[n+]2ccccc2)nc(C[n+]2ccccc2)c(C(=O)OCCCCCCCCCCCC)c1-c1ccccc1.[Br-].[Br-] [compound 27, 1,1’-((3,5-Bis(dodecyloxycarbonyl)-4-phenylpyridine-2,6-diyl)bis(methylene))-bis(pyridin-1-ium)dibromide]
IC50 ([1]; Table 1, 72 h exposure): 3 ± 0.3 µg/mL | LD50 [11]: 3950 mg/kg | IC50 at 72 h ([12]; HT-1080 cells and MH-22A cells (the value covers both lines)): ~3 µg/mL | IC50 [3, 13]: 3.1 ± 0.5 µg/mL | IC50 [4]: 3.2 ± 0.8 µg/mL | IC50 ([6]; Table 1, 72 h exposure): 3.3 ± 0.4 µg/mL | toxicity to noncancerous NIH3T3 cells (in words) [7]: not harmful at all | IC50 ([7]; read-out: NIH3T3 IC50 (NR)): 900 ± 42 µg/mL

Compound: O=C(OCCCCCCCCCCCC(F)(F)C(F)(F)C(F)(F)C(F)(F)C(F)(F)C(F)(F)C(F)(F)C(F)(F)F)C1=C(C[n+]2ccccc2)NC(C[n+]2ccccc2)=C(C(=O)OCCCCCCCCCCCC(F)(F)C(F)(F)C(F)(F)C(F)(F)C(F)(F)C(F)(F)C(F)(F)C(F)(F)F)C1c1ccccc1 [compound 25]
cytotoxicity to cancer cell lines HT-1080 and MH-22A (in words) [10]: undetectable toxicity | toxicity to noncancerous NIH3T3 cells (in words) [7]: low toxicity

Compound: CCCCCCCCCCCCOC(=O)C1=C(C[n+]2ccccc2)NC(C[n+]2ccccc2)=C(C(=O)OCCCCCCCCCCCC)C1c1ccccc1.[Br-].[Br-] [compound 10, 1,1'-((3,5-Bis((dodecyloxy)carbonyl)-4-phenyl-1,4-dihydropyridine-2,6-diyl)bis(methylene))bis(pyridin-1-ium) dibromide]
IC50 ([1]; 72 h): 6 ± 1 µg/mL | IC50 [2]: 3 to 6 µg/mL | IC50 at 72 h [12]: 3 to 6 µg/mL | IC50 ([3]; HT-1080, 72 h): 3 ± 0.3 µg/mL | IC50 [4]: 3 ± 0.5 µg/mL | IC50 at 72 h [5]: ~3 µg/mL | IC50 ([6]; 72 h): 3 ± 0.8 µg/mL | IC50 ([7]; read-out: NIH3T3 IC50 (NR)): 100 ± 6 µg/mL | Oxidation potential E^ox [8]: 1.58 V | electrooxidation potential [8]: 1.57–1.58 V

Compound: CCCCCCCCCCCCOC(=O)C1=C(C[n+]2ccncc2)NC(C[n+]2ccncc2)=C(C(=O)OCCCCCCCCCCCC)C1c1ccccc1 [compound 16, 1,1'-((3,5-Bis((dodecyloxy)carbonyl)-4-phenyl-1,4-dihydropyridine-2,6-diyl)bis(methylne))bis(pyrazin-1-ium) dibromide]
IC50 ([1]; Table 1, 72 h exposure): > 100 µg/mL | cytotoxicity to cancer cell lines HT-1080 and MH-22A (in words) [10]: practically inert | IC50 [3, 13]: > 100 µg/mL | IC50 [4]: > 100 µg/mL | IC50 ([6]; Table 1, 72 h exposure): > 100 µg/mL | toxicity to noncancerous NIH3T3 cells (in words) [7]: nontoxic | IC50 [7, 14]: > 1000 µg/mL

Compound: COC(=O)C1=C(C[n+]2ccccc2)NC(=O)CC1c1ccccc1OC(F)F.[Br-] (centres unmarked) [compound 28, 1-({4-[2-(Difluoromethoxy)phenyl]-3-(methoxycarbonyl)-6-oxo-1,4,5,6-tetrahydropyridin-2-yl}methyl)pyridinium bromide]
IC50 ([1]; Table 2, 72 h exposure): > 100 µg/mL | cytotoxicity to cancer cell lines HT-1080 and MH-22A (in words) [10]: inert | IC50 [3, 15]: > 100 µg/mL | IC50 [4]: > 100 µg/mL | IC50 ([6]; Table 2, 72 h exposure): > 100 µg/mL | IC50 ([7]; read-out: NIH3T3 IC50 (NR)): 1130 ± 85 µg/mL

Compound: CCCCCCCCCCCCOC(=O)C1=C(C[n+]2cccc(C(C)=O)c2)NC(C[n+]2cccc(C(C)=O)c2)=C(C(=O)OCCCCCCCCCCCC)C1c1ccccc1.[Br-].[Br-] [compound 14, 1,1'-((3,5-Bis((dodecyloxy)carbonyl)-4-phenyl-1,4-dihydropyridine-2,6-diyl)bis(methylene))bis(3-acetylpyridin-1-ium) dibromide]
IC50 ([1]; Table 1, 72 h exposure): 100 ± 13 µg/mL | IC50 at 72 h [2]: 50 to 100 µg/mL | IC50 [3, 13]: 3 ± 0.3 µg/mL | IC50 [4]: 3 ± 0.4 µg/mL | IC50 at 72 h ([5]; HT-1080 cells (fibrosarcoma)): ~3 µg/mL | IC50 ([6]; Table 1, 72 h exposure): 49 ± 9 µg/mL | toxicity to noncancerous NIH3T3 cells (in words) [7]: practically nontoxic | IC50 ([7]; read-out: NIH3T3 IC50 (NR)): 922 ± 24 µg/mL

Compound: CCCCCCCCCCCCOC(=O)C1=C(C[n+]2ccc(C)cc2)NC(C[n+]2ccc(C)cc2)=C(C(=O)OCCCCCCCCCCCC)C1c1ccccc1.[Br-].[Br-] [compound 12, 1,1'-((3,5-Bis((dodecyloxy)carbonyl)-4-phenyl-1,4-dihydropyridine-2,6-diyl)bis(methylene))bis(4-methylpyridin-1-ium) dibromide]
IC50 ([1]; Table 1, 72 h exposure): 40 ± 2 µg/mL | IC50 at 72 h [2]: 29 to 40 µg/mL | IC50 [3, 13]: 5 ± 1 µg/mL | IC50 [4]: 10 ± 2 µg/mL | IC50 at 72 h ([5]; HT-1080 cells (fibrosarcoma)): 5 to 10 µg/mL | IC50 ([6]; Table 1, 72 h exposure): 29 ± 2 µg/mL | IC50 ([7]; read-out: NIH3T3 IC50 (NR)): 79 ± 11 µg/mL
